Source: patent publication US7090996B2, “Process for examining membrane enclosed biocompartments” (Micronas GmbH, priority 2000, dated 2006)

Test system: biocompartments 1 (biological cells)
Experiment: Micro-flow chamber ISFET measurement of acidification and respiratory activity of biocompartments
Format: cell-based
Conditions: for acidification ΔpH−31 activated by the biocompartments / respiratory activity of the biocompartments: agent in culture medium, stand-still phase of pump, compared with agent-free medium (FIG. 5)
From the text: In a process for the examining of membrane enclosed biocompartments, biocompartments 1 were designed as biological cells placed in a micro-flow chamber 2. […] The space 3 is provided with an inlet opening 4 and an exit opening 5 for nutrient or culture medium. The chamber housing has a chamber base part 6 and a top part 7 which fits said base part 6 and the two parts are sealed liquid tight to one another by an interposed sealing ring 8.
The inlet opening 4 of the measurement space is connected to the measuring space 3 by a feed conduit 9, which in turn is connected to a culture medium supply 10. A pump 11 is placed in the feed canal 9 for the transport of the culture medium. The pump 11 can be turned on and off by means of a control apparatus (not shown). The exit opening 5 of the micro-flow chamber 2 is joined by means of a connecting line 12, to an exhaust opening 13 for release of the culture medium. In the measuring space 3, the biocompartments 1 stand in contact with the culture medium.
In the base of the measuring space 3, are placed a plurality of ISFET's 14. […] Between drain 16 and source 17, is a gate 18. Gate 18, drain 16 and source 17 are electrically insulated from the measurement space 3 by means of a silicon nitride layer (not shown). The silicon nitride layer forms on its side remote from the gate 18, an active sensor layer. By means of which layer, the ISFET 14 is controllable through the hydrogen ions present in the culture medium. Gate 18, drain 16 and source 17 of the ISFET are connected with a known evaluation apparatus for the determination of the pH value of the culture medium which is somewhat proportional to measurement signal of the respective ISFET 14.
As is particularly well presented in FIG. 2, an electrode 19 is placed in close proximity to the gates 18. This electrode 19 is constructed of a noble metal, such as palladium and is in direct contact with the culture medium.
A reference electrode 20 is paired with the operational electrode 19, which contacts the culture medium at a spatial distance from the ISFET 14. […] The reference electrode 20 and the operational electrodes 19 can be connected to an electrical source of potential for the application of an electric potential on the culture medium.
By means of the above described measurement arrangement, the respiratory activities of the biocompartments 1 can be indirectly measured. To carry out this purpose, the pump 11, which acts to transport the through-put of the culture medium through the measurement space 3, is temporarily stopped. In FIG. 4, the period of time during which the through-put in the measurement space 3 is stopped, is designated as the time T1 (stopping the pump 11) and T2 (starting the pump 11). This time interval can run, for instance, some 8 minutes.
Subsequently, by means of the ISFET 14, a first pH−1 is measured for the pH value of the culture medium, preparatory to a first pH measurement pair. […] When this occurs, this potential preferably is set at some −700 to −800 millivolts. In the embodiment of FIG. 3, this potential is applied to the electrodes 19, 20. The surface of the operational electrode 19 exposed to contact with the culture medium is chosen to be as small as possible with potential measuring preferably less than 1000 μm^2, so that, during the application of electrical voltage, the consumption of oxygen at the operational electrode 19 will be held at the lowest possible level. […]

Compound	viability of the biocompartments (agent in culture medium (FIG. 7))	acidification ΔpH−31 activated by the biocompartments	respiratory activity of the biocompartments
Triton®	dying out	no longer influence the culture medium	no further sign of respiratory activity
O=C(O)CI [iodine acetate]	–	recedes	increase
